The text below walks through data of article PMC9532970, “Rational design of photosynthetic reaction center protein maquettes” (Frontiers in Molecular Biosciences, 2022).

Assay [1] addresses RC maquette-heme B complex. Put plainly: UV/vis pigment binding titration into RC maquette with heme B bound. As to conditions: RC maquette (His124) with heme B bound to the acceptor site; for Kd: read-out: Dissociation constant (KD). The method, then:
(§1) Ultraviolet/visible absorbance spectroscopy (UV/vis) was carried out on a Varian Cary-50 spectrophotometer. Cofactor binding titrations were performed at room temperature using 1 ml samples of ∼1 μM RC maquette in quartz cuvettes. Protein concentrations were calculated by assuming that Trp and Tyr residues have extinction coefficients at 280 nm (ε280nm) of 5,500 M^−1 cm^−1 and 1,490 M^−1 cm^−1, respectively. Samples of Zn 5-phenyl 15-(p-carboxyphenyl) porphyrin (ZnPCP) and Zn Newkome porphyrin were provided by Tatiana Esipova from the research group of Sergei Vinogradov ([Kodali et al., 2017]). The Zn chlorins SE370 and SE375 were produced by the laboratory of Jonathan Lindsey following previously established methods ([Aravindu et al., 2013]; [Kodali et al., 2017]). Other tetrapyrroles were purchased from Frontier Scientific, Inc. Stock solutions of water-soluble cofactors were prepared in water, and insoluble tetrapyrroles were prepared in dimethyl sulfoxide stock solutions of 100–200 µM concentration. Heme B stock concentrations were measured by hemochrome assay ([Berry and Trumpower, 1987]). Stock concentrations of other tetrapyrrole cofactors were estimated by mass measurements.
(§2) For each titration, a cofactor stock solution was titrated into the protein solution in the cuvette. After each addition of cofactor, at least 10 min were allowed for equilibration before collecting a UV/vis spectrum. Cofactor was typically added in steps of 0.1 equivalents of cofactor per protein until after the binding capacity of the protein appeared to have been reached, at which point 0.2 equivalents of cofactor per protein were added at a time. Binding titrations continued until at total of at least three equivalents of cofactor per protein had been added. To determine dissociation constants, we used the following one-site binding equation: A=ctotɛfree+(ɛbound−ɛfree)KD+Ptot+ctot−(KD+Ptot+ctot)^2−4Ptotctot/2+b (2)
(§3) In Eq. 2, A represents the total absorbance at a given wavelength, c tot is the total cofactor concentration, P tot is the total protein concentration, K D is the dissociation constant, εfree is the extinction coefficient of unbound cofactor in solution, εbound is the extinction coefficient of protein-bound cofactor, and b is the absorbance of the sample when c tot is zero.

The next assay addresses RC maquette. The assay can be described thus: UV/vis cofactor binding titration into RC maquette (no heme pre-bound). Particulars: for Kd: electron acceptor titrated into 1.1-4.4 µM RC maquette, pH 7.0, fit to one-site binding equation (Eq. 2), read-out: dissociation constant (KD). How it is done:
as §1, §2, §3

The next assay concerns the target DH maquette. Put plainly: UV/vis heme binding titration into DH maquette. As to conditions: ferric heme B into 0.5 µM DH maquette, 50 mM NaCl, 10 mM MOPS pH 7.5; read-out: dissociation constant (KD).
The next assay concerns the target cyt. b 562. Particulars: read-out: KD of CoPPIX for cyt. b 562, cited from earlier work.

Where two headings read alike, the source gives them in different places.

With `O=C(O)c1ccc(-c2c3nc(c(-c4ccc(C(=O)O)cc4)c4ccc([nH]4)c(-c4ccc(C(=O)O)cc4)c4nc(c(-c5ccc(C(=O)O)cc5)c5ccc2[nH]5)C=C4)C=C3)cc1` [Zn meso-tetra(4-carboxyphenyl) prophyrin], the Kd in assay [1] stood at 5 µM.
For the molecule `C1=Cc2nc1c(-c1ccccc1)c1ccc([n-]1)c(-c1ccncc1)c1nc(c(-c3ccccc3)c3ccc([n-]3)c2-c2ccncc2)C=C1.[Zn+2]` [Zn meso-di(4-pyridyl)-diphenyl porphyrin], the “Dissociation constant (KD), result in words” value (“Dissociation constant (KD)” below) in assay [1] is given as “no binding detected”.
In the case of `C=CC1=C(C)c2cc3[n-]c(cc4[n-]c(cc5nc(cc1n2)C(C)=C5C=C)c(C)c4CCC(=O)O)c(CCC(=O)O)c3C.[Fe+2]` [heme B], the Kd at RC maquette and on DH maquette was < 10 nM each time.
With `CCC1=C(C)c2cc3[n-]c(cc4[n-]c(cc5nc(cc1n2)C(C)=C5CC)c(C)c4CCC(=O)O)c(CCC(=O)O)c3C.[Zn+2]` [Zn mesoporphyrin IX (ZnMPIX), Zn mesoporphyrin IX], the “Dissociation constant (KD)” value in assay [1] is “no binding detected”.
In the case of `C=Cc1c(C)c2cc3[nH]c(cc4nc(cc5nc(cc1[nH]2)C(C)=C5CCC(=O)[O-])C(CCC(=O)[O-])=C4C)c(C)c3C=C.[Co+2]` [CoPPIX, Co(III) protoporphyrin IX], the “CoPPIX affinity relative to heme B affinity of the RC maquette (times weaker)” value in the assay with RC maquette (KD 250 nM vs <10 nM) is “about 25 times”. Besides, the Kd was 250 nM at RC maquette; 0.045 µM on cyt. b 562 (lower end of literature range, ref Alcala-Torano et al., 2021); 8.9 µM on cyt. b 562 (upper end of literature range, ref Sommer et al., 2016).
Turning to `C=CC1=C(C)c2cc3[nH]c(cc4[nH]c(cc5nc(cc1n2)C(C)=C5C=C)c(C)c4CCC(=O)O)c(CCC(=O)O)c3C` [Zn protoporphyrin IX (ZnPPIX), Zn protoporphyrin IX], the Kd in assay [1] amounted to 2 µM.
In the case of Zn chlorin e6 [Zn chlorin e6 (ZnCe6)], the “Dissociation constant (KD)” value in assay [1] was “no binding detected”.
With `CC(=O)C1=C(C)C2=Cc3c(C(C)=O)c(C)c4[n]3[Fe][n]3c(c(C)c(CCC(=O)O)c3=CC3=NC(=C4)C(C)=C3CCC(=O)O)=CC1=N2` [Fe(III)-DADPIX, Fe(III) 2,4-diacetyl deuteroporphyrin IX], the Kd at RC maquette is < 10 nM.
